Data published in PMC3914206.

What was measured:
Format in all cases: binding
Conditions in all cases: Compound Concentration 10 µM
panel of 442 kinases [1] = target: T1, panel of 442 kinases (Homo sapiens, UniProt P41240)
T1 construct: purchased KINOMEscan
Description: (§1) We assessed the selectivity of members of this scaffold using the KINOMEscan methodology across a near comprehensive panel of 442 kinases [[18,27]].

panel of 442 kinases [2] = target: T2, panel of 442 kinases (Homo sapiens, UniProt Q05397)
T2 construct: purchased KINOMEscan
T2 sequence (Q05397 whole entry): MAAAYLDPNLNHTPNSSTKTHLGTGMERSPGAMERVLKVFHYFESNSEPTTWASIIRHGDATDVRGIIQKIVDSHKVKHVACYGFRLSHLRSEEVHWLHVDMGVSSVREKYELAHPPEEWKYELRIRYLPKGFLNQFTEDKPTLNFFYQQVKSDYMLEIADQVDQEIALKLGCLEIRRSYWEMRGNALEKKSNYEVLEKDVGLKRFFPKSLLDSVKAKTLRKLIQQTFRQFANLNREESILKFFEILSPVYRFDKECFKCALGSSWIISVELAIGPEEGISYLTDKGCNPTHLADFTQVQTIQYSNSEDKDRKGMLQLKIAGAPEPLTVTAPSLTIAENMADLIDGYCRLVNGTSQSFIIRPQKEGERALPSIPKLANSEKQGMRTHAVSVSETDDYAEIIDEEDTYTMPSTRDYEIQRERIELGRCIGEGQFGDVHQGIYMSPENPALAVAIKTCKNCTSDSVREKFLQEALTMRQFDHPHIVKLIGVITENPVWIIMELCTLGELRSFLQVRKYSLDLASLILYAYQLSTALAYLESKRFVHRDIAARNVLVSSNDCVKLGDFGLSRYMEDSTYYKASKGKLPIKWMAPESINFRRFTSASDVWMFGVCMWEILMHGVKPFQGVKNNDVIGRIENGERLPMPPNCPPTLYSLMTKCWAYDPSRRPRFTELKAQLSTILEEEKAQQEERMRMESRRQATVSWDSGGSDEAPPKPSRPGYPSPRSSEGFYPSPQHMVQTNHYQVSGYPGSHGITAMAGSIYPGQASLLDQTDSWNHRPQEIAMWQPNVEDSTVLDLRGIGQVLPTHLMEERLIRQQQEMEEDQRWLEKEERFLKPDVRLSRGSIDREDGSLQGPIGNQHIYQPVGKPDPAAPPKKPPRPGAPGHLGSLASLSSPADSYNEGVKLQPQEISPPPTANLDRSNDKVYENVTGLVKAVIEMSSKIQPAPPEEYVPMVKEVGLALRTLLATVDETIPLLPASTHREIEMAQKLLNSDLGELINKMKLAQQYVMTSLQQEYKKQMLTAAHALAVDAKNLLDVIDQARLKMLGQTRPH
Description: as §1

panel of 442 kinases [3] = target: T3, panel of 442 kinases (Homo sapiens, UniProt O94804)
T3 construct: purchased KINOMEscan
T3 sequence (O94804 whole entry): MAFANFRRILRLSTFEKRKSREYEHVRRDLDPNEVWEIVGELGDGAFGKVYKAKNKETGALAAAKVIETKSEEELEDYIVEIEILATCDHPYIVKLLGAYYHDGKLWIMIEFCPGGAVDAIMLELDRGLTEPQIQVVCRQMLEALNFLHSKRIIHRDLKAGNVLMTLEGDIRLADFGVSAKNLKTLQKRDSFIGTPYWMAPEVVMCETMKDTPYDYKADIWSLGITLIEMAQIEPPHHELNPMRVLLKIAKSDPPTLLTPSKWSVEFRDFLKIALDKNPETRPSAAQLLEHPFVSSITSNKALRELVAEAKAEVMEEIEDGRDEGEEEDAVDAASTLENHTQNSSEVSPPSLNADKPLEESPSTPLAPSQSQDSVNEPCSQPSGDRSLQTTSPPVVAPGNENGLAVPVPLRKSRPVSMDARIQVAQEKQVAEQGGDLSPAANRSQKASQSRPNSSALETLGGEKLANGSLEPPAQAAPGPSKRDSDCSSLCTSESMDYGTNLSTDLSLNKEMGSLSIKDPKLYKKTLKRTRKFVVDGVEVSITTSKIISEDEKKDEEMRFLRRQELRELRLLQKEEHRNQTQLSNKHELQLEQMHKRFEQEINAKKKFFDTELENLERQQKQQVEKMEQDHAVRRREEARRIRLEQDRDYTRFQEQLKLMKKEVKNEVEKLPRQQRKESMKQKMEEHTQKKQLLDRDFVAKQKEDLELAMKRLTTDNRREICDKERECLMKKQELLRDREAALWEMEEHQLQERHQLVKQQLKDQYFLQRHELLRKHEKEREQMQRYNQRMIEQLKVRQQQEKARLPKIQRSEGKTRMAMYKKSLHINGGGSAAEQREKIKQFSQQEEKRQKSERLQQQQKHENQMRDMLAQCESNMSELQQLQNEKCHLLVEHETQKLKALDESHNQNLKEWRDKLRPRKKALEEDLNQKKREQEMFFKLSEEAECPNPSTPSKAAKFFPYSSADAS
Description: as §1

panel of 442 kinases [4] = target: T4, panel of 442 kinases (Homo sapiens, UniProt P42338)
T4 construct: purchased KINOMEscan
T4 sequence (P42338 whole entry): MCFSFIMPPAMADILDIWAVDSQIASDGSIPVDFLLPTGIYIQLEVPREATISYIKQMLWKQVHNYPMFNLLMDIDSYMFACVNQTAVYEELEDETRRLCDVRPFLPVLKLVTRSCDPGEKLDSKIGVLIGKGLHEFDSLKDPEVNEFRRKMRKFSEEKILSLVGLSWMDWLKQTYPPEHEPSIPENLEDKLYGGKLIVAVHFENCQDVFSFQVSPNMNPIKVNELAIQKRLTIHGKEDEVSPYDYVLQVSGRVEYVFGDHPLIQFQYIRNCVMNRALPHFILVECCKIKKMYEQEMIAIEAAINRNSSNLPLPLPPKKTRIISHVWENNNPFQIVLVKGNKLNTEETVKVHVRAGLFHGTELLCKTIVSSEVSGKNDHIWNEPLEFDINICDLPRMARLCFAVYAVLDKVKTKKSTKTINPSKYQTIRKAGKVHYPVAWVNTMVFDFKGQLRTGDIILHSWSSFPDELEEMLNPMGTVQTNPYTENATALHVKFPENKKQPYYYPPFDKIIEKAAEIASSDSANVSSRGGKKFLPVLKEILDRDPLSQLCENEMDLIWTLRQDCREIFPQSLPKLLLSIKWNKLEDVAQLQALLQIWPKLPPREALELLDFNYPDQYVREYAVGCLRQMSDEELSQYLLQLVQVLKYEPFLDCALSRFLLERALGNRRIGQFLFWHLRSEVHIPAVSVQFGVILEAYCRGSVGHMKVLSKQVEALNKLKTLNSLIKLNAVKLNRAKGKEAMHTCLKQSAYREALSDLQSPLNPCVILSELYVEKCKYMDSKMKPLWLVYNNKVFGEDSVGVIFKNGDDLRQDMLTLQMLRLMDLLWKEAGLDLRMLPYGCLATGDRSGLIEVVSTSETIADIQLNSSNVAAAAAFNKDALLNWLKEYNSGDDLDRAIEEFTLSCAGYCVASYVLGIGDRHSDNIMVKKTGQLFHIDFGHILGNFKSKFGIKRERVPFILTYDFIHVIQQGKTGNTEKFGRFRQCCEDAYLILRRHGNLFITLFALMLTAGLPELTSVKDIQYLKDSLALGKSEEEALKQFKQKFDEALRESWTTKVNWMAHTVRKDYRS
Description: as §1

T1 sequence (P41240 whole entry): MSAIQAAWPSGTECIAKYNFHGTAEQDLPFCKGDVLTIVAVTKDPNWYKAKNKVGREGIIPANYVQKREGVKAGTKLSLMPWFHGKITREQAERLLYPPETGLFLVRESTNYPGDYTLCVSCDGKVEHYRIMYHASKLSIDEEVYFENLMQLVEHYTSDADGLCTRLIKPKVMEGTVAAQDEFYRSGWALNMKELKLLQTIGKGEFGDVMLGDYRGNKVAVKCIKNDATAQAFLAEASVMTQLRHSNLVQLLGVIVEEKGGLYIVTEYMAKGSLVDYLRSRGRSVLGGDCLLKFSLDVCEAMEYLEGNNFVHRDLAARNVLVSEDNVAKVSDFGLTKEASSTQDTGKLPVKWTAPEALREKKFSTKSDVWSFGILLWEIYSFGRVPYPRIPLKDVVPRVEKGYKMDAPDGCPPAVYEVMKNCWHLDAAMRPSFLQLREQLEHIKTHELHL

Compound	KINOMEscan: CSK (panel of 442 kinases [1])	KINOMEscan: FAK (panel of 442 kinases [2])	KINOMEscan: LOK (panel of 442 kinases [3])	KINOMEscan: PIK3CB (panel of 442 kinases [4])
COc1cc(C(=O)N2CCC(N3CCN(C)CC3)CC2)ccc1Nc1ncc2c(n1)N(C1CCCC1)c1ccccc1C(=O)N2C [Compound 25, 11-cyclopentyl-2-((2-methoxy-4-(4-(4-methylpiperazin-1-yl)piperidine-1-carbonyl)phenyl)amino)-5-methyl-5H-benzo[e]pyrimido[5,4-b][1,4]diazepin-6(11H)-one]	74	19	100	87
COc1cc(C(=O)N2CCC(N3CCN(C)CC3)CC2)ccc1Nc1ncc2c(n1)N1CCc3cccc(c31)C(=O)N2C [Compound 24]	75	–	70	71
COc1cc(C(=O)N2CCC(N3CCN(C)CC3)CC2)ccc1Nc1ncc2c(n1)N(C)c1ccccc1C(=O)N2C [15 (LRRK2-IN-1)]	90	34	100	96
CCOc1cc(C(=O)N2CCC(N3CCN(C)CC3)CC2)ccc1Nc1ncc2c(n1)N(C1CCCC1)c1ccccc1C(=O)N2C [Compound 26]	100	57	100	100
